Reference: PubChem BioAssay (NCI)
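Tested at 5 concentrations; 48 h exposure; 96-well plates; endpoints linearly interpolated, else capped at highest concentration. GI50 is the concentration that inhibits growth by half. TGI: concentration producing complete growth inhibition.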 Where a SMILES comes first, the peptide text is derived from it. The star is where a group is joined. Cbz = O=C(OCc1ccccc1)*

Tests used:
Assay in all cases: NCI-60 cell line screen, 48 h
MALME-3M melanoma = test system: MALME-3M melanoma
NCI-H226 lung = test system: NCI-H226 lung
SF-268 CNS = test system: SF-268 CNS
A549 NSCLC = test system: A549 NSCLC
IGROV1 ovarian = test system: IGROV1 ovarian
LOX IMVI melanoma = test system: LOX IMVI melanoma
MDA-MB-435 = test system: MDA-MB-435
NCI-H522 lung = test system: NCI-H522 lung
HCC-2998 colon = test system: HCC-2998 colon
BT-549 breast = test system: BT-549 breast

Structure (SMILES) | TGI (MALME-3M melanoma) [µM] | TGI (NCI-H226 lung) [µM] | TGI (SF-268 CNS) [µM] | TGI (A549 NSCLC) [µM] | TGI (IGROV1 ovarian) [µM] | TGI (LOX IMVI melanoma) [µM] | TGI (MDA-MB-435) [µM] | TGI (NCI-H522 lung) [µM] | TGI (HCC-2998 colon) [µM] | TGI (BT-549 breast) [µM] | GI50 (NCI-H226 lung) [µM] | GI50 (A549 NSCLC) [µM] | GI50 (LOX IMVI melanoma) [nM] | GI50 (BT-549 breast) [nM] | GI50 (NCI-H522 lung) [nM] | GI50 (MALME-3M melanoma) [nM] | GI50 (SF-268 CNS) [µM] | GI50 (IGROV1 ovarian) [nM] | GI50 (MDA-MB-435) [nM] | GI50 (HCC-2998 colon) [µM]
N=C(N)SCc1ccc(N=C=S)cc1 | 27.4 | 34.6 | 35.1 | 30.5 | 26.7 | 28 | 26 | 21.6 | 30.4 | – | – | – | – | – | – | – | – | – | – | –
COc1cccc(C=C2N=C(C)N(n3c(-c4ccccc4)nc4ccccc4c3=O)C2=O)c1 | – | > 100 | > 100 | > 100 | > 100 | > 100 | > 100 | > 100 | > 100 | > 100 | – | – | – | – | – | – | – | – | – | –
CCc1c(C)c2ccc(OCC(=O)N=Nc3c(O)[nH]c4ccccc34)c(C)c2oc1=O | – | > 33.3 | – | > 33.3 | – | > 7.31 | – | 1.81 | – | 2.1 | > 33.3 | > 33.3 | 832 | 817 | 770 | – | – | – | – | –
CC(C)(O)CCc1ccc(O)c2c(=O)c3c(O)c4c(cc3oc12)O[C@H]1OC=C[C@@]41O | – | 0.162 | 8.54 | > 100 | 0.252 | > 100 | < 0.01 | 18.3 | < 0.0176 | > 62.5 | – | – | – | – | – | – | – | – | – | –
CCCCc1c2c(nc3c1CC/C(=C\c1ccc([N+](=O)[O-])cc1)C3=O)CCCC2 | 3.84 | 6.5 | 3.93 | 16.3 | 3.24 | 3.05 | – | 2.84 | 3.17 | – | – | – | – | – | – | – | – | – | – | –
O=C1CCCC2=C1CC1=C(CCCC1=O)N2c1cccc([N+](=O)[O-])c1 | – | > 100 | > 100 | > 100 | > 100 | > 100 | – | – | > 100 | > 100 | – | – | – | – | – | – | – | – | – | –
Cc1ccc(NC(=O)/C(=N\NC(N)=O)c2c(O)c3ccccc3[nH]c2=O)cc1 | – | > 100 | > 100 | > 100 | – | > 100 | > 100 | – | > 100 | > 100 | – | – | – | – | – | – | – | – | – | –
O=C1CSC(C(N=Nc2ccc(Cl)cc2)c2nc3ccccc3[nH]2)=N1 (centres undefined) | > 100 | 52 | > 100 | > 100 | – | – | – | 71.1 | > 100 | – | – | – | – | – | – | – | – | – | – | –
Cc1nnc([C@@]2(C)CC[C@H]3[C@@H](CCC4=CC(=O)CC[C@@]43C)[C@@H]2CC#N)o1 | > 100 | > 100 | > 100 | > 100 | > 100 | > 100 | > 100 | > 100 | – | > 100 | – | – | – | – | – | – | – | – | – | –
CCOC(=O)CNC(=O)C(C)NC(=O)C(NC(=O)OCc1ccccc1)C(C)C (stereo not drawn) (Cbz-Val-Ala-Gly-OEt; configuration not given here) | > 100 | – | > 100 | > 100 | > 100 | – | > 100 | > 100 | > 100 | > 100 | – | – | – | – | – | – | – | – | – | –
CN(C)/C=C/c1c2c(nc3ccccc13)C(=O)c1ccccc1C2=O | – | 5.21 | 5.26 | 8.72 | 4.71 | 0.294 | 0.206 | 4.61 | 5.17 | 4.87 | – | – | – | – | – | – | – | – | – | –
C[N+](C)(C)C(C1=CCCC1=O)c1ccccc1 (centres undefined) | 41 | > 100 | 60.1 | > 100 | > 100 | 38.3 | 72.7 | 35 | – | 95.5 | – | – | – | – | – | – | – | – | – | –
Cc1ccc([N+](=O)[O-])cc1S(=O)(=O)Nc1ccc(C2=NN(S(=O)(=O)c3cc([N+](=O)[O-])ccc3C)C(c3ccco3)C2)cc1 (centres undefined) | > 100 | > 100 | > 100 | – | > 100 | > 100 | > 100 | > 100 | – | 97.5 | – | – | – | – | – | – | – | – | – | –
Cc1ccc(S(=O)(=O)N2CCCSCCN(S(=O)(=O)c3ccc(C)cc3)CCCSCC2)cc1 | – | > 100 | > 100 | > 100 | > 100 | – | > 100 | – | > 100 | > 100 | – | – | – | – | – | – | – | – | – | –
CC(C)[C@](O)(C(=O)OCC1=CCN2CC[C@@H](O)[C@@H]12)[C@H](C)O | > 375 | > 375 | > 375 | > 375 | > 375 | > 174 | – | > 375 | > 375 | – | – | – | – | – | – | – | – | – | – | –
COc1cc2cc(C(=O)N3CC(CCl)c4c3cc(O)c3ccccc43)[nH]c2c(OC)c1OC (centres undefined) | < 0.005 | – | 10.8 | > 50 | – | 0.625 | – | 0.155 | < 0.005 | 9.94 | – | – | – | – | – | – | – | – | – | –
O=P1(Oc2ccccc2)NCc2ncccc2O1 (centres undefined) | – | > 100 | – | > 100 | > 100 | > 100 | > 100 | – | > 100 | > 100 | – | – | – | – | – | – | – | – | – | –
CCOC(=O)C1=C(C)NC(C)=C(C(=O)OCC)C1c1ccc(C)cc1 | – | > 100 | > 100 | > 100 | > 100 | > 100 | > 100 | 94.2 | > 100 | > 100 | – | – | – | – | – | – | – | – | – | –
CC(C)(SCc1ccccc1)C(N)C(=O)O (centres undefined) | > 100 | > 100 | > 100 | > 100 | > 100 | > 100 | > 100 | > 100 | – | > 100 | – | – | – | – | – | – | – | – | – | –
Cc1c(-c2ccc(O)c(O)c2)oc(=O)c2c(O)cccc12 | 26.9 | – | 50.7 | > 100 | 20.1 | – | 12.3 | 15.5 | 22.1 | 44.6 | – | – | – | – | – | – | – | – | – | –
CS/C=C\C(=O)O[C@H]1C[C@@H]2[C@@H](O)c3occ(C)c3C[C@]2(C)[C@@H](C)C1 | 35.6 | 28.7 | 82.3 | – | 40.3 | 32.8 | 43.6 | 71.7 | 85.7 | – | – | – | – | – | – | – | – | – | – | –
C[C@]12CCc3sc(-c4cccc(F)c4)nc3C1=CC[C@@H]1[C@@H]2CC[C@]2(C)C(=O)CC[C@@H]12 | 4.13 | – | 18.9 | 31.5 | 4.88 | 3.36 | > 100 | 6.35 | > 100 | 8.06 | – | 3.95 | 1740 | 2200 | 2400 | 1800 | 3.15 | 2090 | 2970 | 3.19
